One substance from patent US8597660B2, “Therapeutic approach to neurodegenerative disorders using a TFP5-peptide” (The United States of America, as represented by the …, priority 2010, dated 2013) can be followed below.

Entries after “also recorded” stand apart in the source; their conditions may differ.

Test [1] concerns the target Cdk5/P35 (Homo sapiens, UniProt Q00535). The experiment in a line: In vitro kinase (pad) assay of active Cdk5/P35 with histone H1 as substrate. Type of test: biochemical. As to conditions: 0.7 μM P5. Here is the method:
(§1) Kinase assays were performed as previously described (Veeranna, et al., J Neurosci 18(11), 4008-4021, 1998). Briefly, 7 days in culture (7 DIC) primary rat cortical neurons were infected with P25, P35, Cdk5 wild-type, dominant negative-Cdk5 and P5 using the lentiviral gene delivery as described earlier. Cdk5 was immunoprecipitated using the polyclonal C8 antibody overnight at 4° C. and immunoglobulin isolated using Protein A sepharose beads for 2 hours at 4° C. Immunoprecipitates were washed three times with lysis buffer and then once with 1× kinase buffer containing 20 mM Tris-Cl pH 7.4, 1 mM EDTA, 1 mM EGTA, 10 mM MgCl2, 10 mM sodium fluoride and 1 mM sodium orthovanadate. Endogenous Cdks were immunoprecipitated from HEK 293 cells using their respective antibodies and treated as above. […]
In a dose-dependent kinase assay the effective inhibitory concentration of P5 for both the Cdk5/P25 and Cdk5/P35 complexes was evaluated. […]
P5, a 24 amino acid peptide derived from Cdk5 regulator p35, was modified by conjugating it with TAT PTD at the C-terminal end and with FITC (using a GGG linker) at the N-terminus to produce a fluorescent (FITC-labeled) TFP5 (SEQ ID NO: 2) peptide. In a dose-dependent kinase assay the effective inhibitory concentration of TFP5 for both the Cdk5/P25 and Cdk5/P35 complexes was evaluated. […]

The test system of test [2] is tau phosphorylation. The experiment in a line: Aβ-induced tau phosphorylation in cortical neurons, Western blot. It counts as cell-based, rat. As to conditions: Aβ 6 h. Here is the method:
Primary cultures of rat cortical neurons were prepared from E-18 rat fetuses as described previously (Zheng et al., J Biol Chem 278(26), 24026-24032, 2003). After 7 days, cells were infected independently or co-infected with empty vector (EV), the constructs of P5, P25, P35, wild-type Cdk5 and dominant negative Cdk5 (changing Lys33 to Thr33) using the Adenoviral vector (pAdTrack-CMV) packaging system as described above. […] The cells were fixed for immunocytochemistry analyses (ICC) or lysed with lysis buffer for immunoprecipitation and Western blot analyses. Cortical neuron cultures were prepared and plated on the cover slips as described. Human embryo kidney cells (HEK293) were grown as described previously (Zheng et al., Eur J Biochem 269(18), 4427-4434, 2002). In these studies HEK293 cells on day 1, or neurons on day 5, were transfected with or without Myc-P5-GFP using Lipofectamine 2000 following the manufacturer's instructions.
Western blot analysis was performed as previously described (Zheng et al., Eur J Biochem 269(18), 4427-4434, 2002). In brief, an equal amount of total protein (20 μg/lane) was resolved on a 4-20% SDS polyacrylamide gel and blotted onto a polyvinylidene difluoride membrane. This membrane was incubated in blocking buffer containing 20 mM Tris-HCl (pH 7.4), 150 mM NaCl, and 0.1% (vol/vol) Tween 20 (TTBS) plus 5% dry milk (w/v) for 1 hour at room temperature followed by incubation overnight at 4° C. in primary antibodies (see antibodies). The membranes were then washed four times in TTBS (5 minutes/each) followed by incubation in secondary antibody (goat-antimouse or goat anti-rabbit IgG (H+L)-horseradish peroxidase (HRP) conjugate at a dilution of 1:3000) for 1 hour at room temperature. Western blots were analyzed using the Amersham Enhanced Chemiluminescence (ECL) kit following the manufacturer's instructions (GE Healthcare, Piscataway, N.J.).
Amyloid plaques and neurofibrillary tangles, pathological hallmarks of several neurodegenerative disorders, are linked to deregulated Cdk5 and neuronal death. According to one model, β amyloid, being toxic, may evoke abnormal calcium influx into neurons which activates calpains. […] Hyperactivation of Cdk5, leads to the aberrant phosphorylation of tau and neurofilaments in a number of neurodegenerative diseases including AD and ALS. For example, primary cortical neurons, when treated with Aβ1-42 are induced to form Cdk5/P25 complexes, hyperactive Cdk5 activity, hyperphosphorylation of tau, and neuronal apoptosis. To determine whether P5 will inhibit endogenous tau phosphorylation induced by Aβ treatment in cortical neurons, 7 day old cortical neurons, infected with empty vector (EV) or with P5 were treated with Aβ for 6 hours, lysed and prepared for Cdk5 immunoprecipitation and kinase assay. Aβ treatment causes an approximate 3-fold increase in endogenous Cdk5 activity as visualized by histone H1 phosphorylation (FIG. 4A, panel 5, lane 2; FIG. 4B).
; FIG. 4D). […] Tau antibodies p-Ser404, PHF antibody AT180 (recognizes p-Thr231) and p-Ser422 antibodies were used to observe whether P5 affects other tau phosphorylation residues (FIGS. 4E, 4F). […]. Tau 5 recognizes total tau, nonphosphorylated as well as phosphorylated.
For orientation: A western blot detects proteins with antibodies after separation by electrophoresis.

The target of test [3] is T1, Cdk5/P25 (Rattus norvegicus, UniProt Q03114).
T1 construct: endogenous in cells; host or cells: E-18 rat cortical neurons treated with 10 uM Abeta1-42
Kind of test: In vitro kinase assay on Cdk5 immunoprecipitates of Aβ1-42-treated cortical neurons with added P5 peptide. Type of test: biochemical. The conditions noted are these: P5 0.45 μM or above. The method, then:
as §1, with “above. Kinase assays were performed in the same buffer containing 1 mM DTT, 0.1 mM ATP and 0.185 MBq [γ-32P] ATP with 20 μg of histone H1 as the substrate.” for “above.”
To determine the minimum dose at which the P5 peptide is an efficient inhibitor of Cdk5/P25 hyperactivity under physiological conditions, cortical neurons were treated with Aβ1-42 to induce the expression of P25 and Cdk5 hyperactivation, Cdk5 immunoprecipitates were prepared and the effect of different concentrations of P5 was evaluated (FIG. 6).

Cdk5/P35, sequence (Q00535 whole entry, species assumed): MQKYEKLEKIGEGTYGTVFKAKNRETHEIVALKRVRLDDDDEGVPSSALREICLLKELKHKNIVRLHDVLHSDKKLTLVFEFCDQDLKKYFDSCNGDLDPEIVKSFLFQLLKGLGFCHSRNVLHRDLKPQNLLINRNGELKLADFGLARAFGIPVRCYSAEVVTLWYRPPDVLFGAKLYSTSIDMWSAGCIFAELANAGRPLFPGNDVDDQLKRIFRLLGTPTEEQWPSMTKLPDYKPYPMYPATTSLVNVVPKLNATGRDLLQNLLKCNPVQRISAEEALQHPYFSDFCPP
T1 sequence (Q03114 whole entry): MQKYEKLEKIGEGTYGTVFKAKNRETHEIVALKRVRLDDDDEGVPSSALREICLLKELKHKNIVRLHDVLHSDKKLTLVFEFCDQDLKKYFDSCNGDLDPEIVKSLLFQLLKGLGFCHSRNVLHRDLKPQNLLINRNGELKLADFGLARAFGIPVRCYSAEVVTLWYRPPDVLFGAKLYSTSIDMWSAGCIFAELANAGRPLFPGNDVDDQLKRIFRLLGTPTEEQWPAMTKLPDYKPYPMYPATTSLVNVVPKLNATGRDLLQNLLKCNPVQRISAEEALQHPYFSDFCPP

As for “P5: 24 residue peptide derived from Cdk5 activator P35 (K254-A277 of SEQ ID NO: 16); Cdk5 inhibitory peptide (KEAFWDRCLSVINLMSSKMLQINA; listed as Homo sapiens)”, in test [1], the “Inhibition of Cdk5/P35 activity” value was “approximately 70%”. In test [2] (P5 infection), the “Aβ-induced tau phosphorylation at Ser404” value is “reduces phosphorylation at Thr 231 and Ser404; also recorded: significantly inhibits tau phosphorylation at S404 and T231”; the “Aβ-induced tau phosphorylation at Thr231 (AT180)” value is “reduces phosphorylation at Thr 231 and Ser404; also recorded: significantly inhibits tau phosphorylation at S404 and T231”. Also, in test [2] (P5 infection or roscovitine), the “Aβ-induced tau phosphorylation at Ser422” value is on record as “only a modest affect on Ser 422; also recorded: slight decrease of tau phosphorylation at the Ser422 site, is not significant”; the “Aβ-induced tau phosphorylation detected by AT8 and p-Ser199/202 antibodies” value was “baseline levels of tau phosphorylation; also recorded: restoring it to basal levels”. In test [3], the “Aβ1-42-induced Cdk5 hyperactivity” value is given as “totally eliminated”.
